According to US12421225B2, “Heteroaromatic amide derivative and medicament containing the same” (KAKEN PHARMACEUTICAL CO., LTD., priority 2018, dated 2025):

Target: human Nav1.7 (Homo sapiens (Human), UniProt Q15858)
Assay: Human Nav1.7 inhibitory activity evaluation (automated patch clamp QPatch16X, HEK293A cells stably expressing human Nav1.7 and human Navβ1)
Format: cell-based
Details: human Nav1.7, automated patch clamp
Procedure, shortened: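 IC50 calculated from the concentration-response of inward current evoked by the second −10 mV, 50 ms depolarisation, which follows a 15 s conditioning step at roughly 30-40% inactivation and a 100 ms −120 mV interval. Cells: HEK293A expressing human Nav1.7/Navβ1, automated patch clamp, room temperature, 0.1% DMSO final.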

human Nav1.7, sequence (Q15858 whole entry): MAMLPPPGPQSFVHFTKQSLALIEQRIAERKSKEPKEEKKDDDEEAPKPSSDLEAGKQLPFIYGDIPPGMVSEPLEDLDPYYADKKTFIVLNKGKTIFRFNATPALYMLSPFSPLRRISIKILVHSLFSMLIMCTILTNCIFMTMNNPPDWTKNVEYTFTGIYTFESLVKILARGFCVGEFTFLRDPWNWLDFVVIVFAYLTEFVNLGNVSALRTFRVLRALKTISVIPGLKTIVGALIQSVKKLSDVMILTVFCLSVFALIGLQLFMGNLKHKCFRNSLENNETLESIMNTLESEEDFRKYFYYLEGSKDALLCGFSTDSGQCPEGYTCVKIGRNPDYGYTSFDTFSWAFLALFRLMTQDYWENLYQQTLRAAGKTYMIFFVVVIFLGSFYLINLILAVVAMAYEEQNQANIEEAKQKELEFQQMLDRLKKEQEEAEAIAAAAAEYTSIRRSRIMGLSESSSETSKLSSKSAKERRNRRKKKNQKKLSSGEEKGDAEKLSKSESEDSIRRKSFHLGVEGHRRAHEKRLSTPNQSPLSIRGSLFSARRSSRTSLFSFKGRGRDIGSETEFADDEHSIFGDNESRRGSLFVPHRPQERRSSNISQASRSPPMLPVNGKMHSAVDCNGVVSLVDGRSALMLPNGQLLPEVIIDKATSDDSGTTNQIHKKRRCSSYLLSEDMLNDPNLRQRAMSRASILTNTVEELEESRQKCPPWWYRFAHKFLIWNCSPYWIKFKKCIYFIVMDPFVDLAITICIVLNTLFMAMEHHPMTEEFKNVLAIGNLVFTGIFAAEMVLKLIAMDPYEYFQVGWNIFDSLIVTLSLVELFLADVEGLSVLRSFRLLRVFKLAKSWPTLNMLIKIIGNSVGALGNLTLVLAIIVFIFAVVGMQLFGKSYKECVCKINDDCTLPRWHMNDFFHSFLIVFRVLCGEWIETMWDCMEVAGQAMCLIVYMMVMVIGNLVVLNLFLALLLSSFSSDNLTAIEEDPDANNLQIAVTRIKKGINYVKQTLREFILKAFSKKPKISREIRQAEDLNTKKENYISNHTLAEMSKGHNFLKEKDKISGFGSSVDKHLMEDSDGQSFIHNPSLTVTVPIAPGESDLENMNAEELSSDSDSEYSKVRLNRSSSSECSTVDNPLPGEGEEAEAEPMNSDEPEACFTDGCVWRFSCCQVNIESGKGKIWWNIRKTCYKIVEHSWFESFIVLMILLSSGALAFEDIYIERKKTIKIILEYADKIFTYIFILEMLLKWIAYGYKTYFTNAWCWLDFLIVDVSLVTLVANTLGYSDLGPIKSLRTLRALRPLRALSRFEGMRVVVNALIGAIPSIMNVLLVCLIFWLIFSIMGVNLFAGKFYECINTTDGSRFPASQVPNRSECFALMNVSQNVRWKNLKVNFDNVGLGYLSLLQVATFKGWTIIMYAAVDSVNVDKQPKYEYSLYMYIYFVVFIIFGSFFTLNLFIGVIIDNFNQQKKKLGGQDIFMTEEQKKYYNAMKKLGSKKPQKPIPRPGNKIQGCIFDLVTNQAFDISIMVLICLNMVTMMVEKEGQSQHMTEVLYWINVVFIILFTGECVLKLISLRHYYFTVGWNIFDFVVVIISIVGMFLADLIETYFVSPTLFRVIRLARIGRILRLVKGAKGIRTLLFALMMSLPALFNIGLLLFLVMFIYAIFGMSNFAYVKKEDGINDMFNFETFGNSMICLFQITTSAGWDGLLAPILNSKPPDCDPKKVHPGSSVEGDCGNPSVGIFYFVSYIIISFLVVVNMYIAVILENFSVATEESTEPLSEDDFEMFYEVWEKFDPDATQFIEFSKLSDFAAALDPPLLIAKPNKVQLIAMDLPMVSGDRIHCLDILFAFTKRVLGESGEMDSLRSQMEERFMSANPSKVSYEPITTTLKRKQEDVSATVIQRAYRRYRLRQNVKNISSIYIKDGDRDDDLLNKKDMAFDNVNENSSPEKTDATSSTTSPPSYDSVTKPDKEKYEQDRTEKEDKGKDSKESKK
human Nav1.7, sequence (Q07699 19-218 partner): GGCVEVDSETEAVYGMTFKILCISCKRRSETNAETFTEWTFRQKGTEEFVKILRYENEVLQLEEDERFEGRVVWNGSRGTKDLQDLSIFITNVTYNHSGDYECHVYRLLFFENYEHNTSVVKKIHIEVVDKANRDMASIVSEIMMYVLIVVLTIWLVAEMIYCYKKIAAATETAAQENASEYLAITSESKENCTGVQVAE

| Compound | IC50 [nM] |
| --- | --- |
| N#Cc1ccc2c(c1)C[C@@H](NC(=O)c1cc3n(n1)CCC(CSCC(F)(F)F)O3)CO2 (stereo partly shown) [Example 424] | < 10000 |
| N#Cc1ccc2c(c1)C[C@@H](NC(=O)c1cc3n(n1)CCC(COC1CC(F)C1)O3)CO2 (stereo partly shown) [Example 439] | < 10000 |
| O=C(N[C@H]1COc2ccc(COCC(F)(F)F)cc2C1)c1cc2n(n1)CCC(CN1CC(F)(F)C1)O2 (stereo partly shown) [Example 440] | < 10000 |
| Cc1c(C(=O)N[C@H]2COc3ccc(Cl)cc3C2)nn2c1OC(C)(C)C2 [Example 446] | < 10000 |
| CCN(CC1Cn2nc(C(=O)N[C@H]3COc4ccc(C#N)cc4C3)cc2O1)CC(F)(F)F (stereo partly shown) [Example 452] | < 10000 |
| O=C(N[C@H]1COc2ccc(Cl)cc2C1)c1cc2n(n1)CC(Cn1cccn1)O2 (stereo partly shown) [Example 453] | < 10000 |
| O=C(N[C@H]1COc2ccc(Cl)cc2C1)c1cc2n(n1)CCCC(c1ccccc1)O2 (stereo partly shown) [Example 480] | < 10000 |
| N#Cc1ccc2c(c1)C[C@@H](NC(=O)c1cc3n(n1)CCC(C(F)(F)F)CO3)CO2 (stereo partly shown) [Example 483] | < 10000 |
| CC(C)(c1ccccn1)N1CCn2nc(C(=O)N[C@H]3COc4ccc(C#N)cc4C3)cc2C1 [Example 501] | < 10000 |
| N#Cc1ccc2c(c1)C[C@@H](NC(=O)c1cc3n(n1)CCN(C1(CC(F)(F)F)CC1)C3)CO2 [Example 503] | < 10000 |
| O=C(N[C@H]1COc2ccc(Cl)cc2C1)c1nn2c(c1-c1ccccc1)CN(CC(F)(F)F)CC2 [Example 509] | < 10000 |
| O=C(NC1COc2ccccc2C1)c1cc2n(n1)CCN(C(=O)CCc1ccccc1)C2 (stereo not shown) [Example 510] | < 10000 |
| O=C(NC1COc2ccccc2C1)c1cc2n(n1)CCN(S(=O)(=O)c1ccccc1C(F)(F)F)C2 (stereo not shown) [Example 511] | < 10000 |
| Cc1cc(-c2c(C(=O)N[C@H]3COc4ccc(C(F)(F)F)cc4C3)nc3n2CCOC3)[nH]n1 [Example 512] | < 10000 |
| CCc1cccc(-c2c(C(=O)N[C@H]3COc4ccc(C#N)cc4C3)nn3c2COCC3)n1 [Example 516] | < 10000 |
| O=C(N[C@H]1COc2ccc(C(F)(F)F)cc2C1)c1nn2c(c1-c1ccc3cccnc3c1)COCC2 [Example 517] | < 10000 |
| O=C(N[C@H]1COc2ccc(C(F)(F)F)cc2C1)c1nn2c(c1-c1cccc(CO)n1)COCC2 [Example 519] | < 10000 |
| Cc1cccc(-c2c(C(=O)N[C@H]3COc4ccc(C(F)(F)F)cc4C3)nn3c2NCCC3)n1 [Example 524] | < 10000 |

| Compound | IC50 [nM] |
| --- | --- |
| O=C(N[C@H]1COc2ccc(COCC(F)(F)F)cc2C1)c1nn2c(c1-c1ccccn1)NCCC2 [Example 525] | < 10000 |
| O=C(N[C@H]1COc2ccc(C(F)(F)F)cc2C1)c1nn2c(c1-c1cccc(C(O)C(F)(F)F)n1)COCC2 (stereo partly shown) [Example 527] | < 1000 |
| O=C(N[C@H]1COc2ccc(C(F)(F)F)cc2C1)c1nn2c(c1-c1ccccn1)COCCC2 [Example 528] | < 10000 |
| COc1cccc(-c2c(C(=O)N[C@H]3COc4ccc(C(F)(F)F)cc4C3O)nn3c2COCC3)n1 (stereo partly shown) [Example 529] | < 1000 |
| O=C(N[C@H]1COc2ccc(C(F)(F)F)cc2C1)c1cc2n(n1)CCC(COCC1(F)CC1)O2 (stereo partly shown) [Example 533] | < 1000 |
| O=C(N[C@H]1COc2ccc(C(F)(F)F)cc2C1OCC(F)(F)F)c1cc2n(n1)CCC(C(F)F)O2 (stereo partly shown) [Example 536] | < 10000 |
| O=C(N[C@H]1COc2cc(C(F)(F)F)nn2C1)c1cc2n(n1)CCC(c1ccccc1F)O2 (stereo partly shown) [Example 537] | < 10000 |
| O=C(N[C@H]1COc2ccc(C(F)(F)F)cc2C1)c1cc2n(n1)CC(COCC1CC1)CO2 (stereo partly shown) [Example 539] | < 10000 |
| O=C(NCC1COc2ccc(Cl)cc2C1)c1cc2n(n1)CCC(COC(F)(F)F)O2 (stereo not shown) [Example 542] | < 10000 |
| CCC1(O)c2cc(C(F)(F)F)ccc2OC[C@@H]1NC(=O)c1cc2n(n1)CCC(C(F)F)O2 (stereo partly shown) [Example 544] | < 10000 |
| O=C(N[C@H]1COc2ccc(COCC(F)(F)F)cc2C1)c1cc2n(n1)CCC1(CC1)CO2 [Example 545] | < 1000 |
| O=C(N[C@H]1COc2ccc(C(F)(F)F)cc2C1OC(F)(F)F)c1cc2n(n1)CCC(C(F)F)O2 (stereo partly shown) [Example 546] | < 1000 |
| O=C(N[C@H]1COc2ccc(Cl)cc2C1)c1cn2c(n1)CC(CNCC(F)(F)F)CO2 (stereo partly shown) [Example 548] | < 10000 |
| CCC1CCn2nc(C(=O)N[C@H]3COc4ccc(C(F)(F)F)nc4C3)cc2O1 (stereo partly shown) [Example 549] | < 10000 |
| O=C(N[C@H]1COc2ccc(C(F)(F)F)nc2C1)c1cc2n(n1)CCC(c1ccccc1F)O2 (stereo partly shown) [Example 550] | < 1000 |
| COc1c(C(F)(F)F)ccc2c1C[C@@H](NC(=O)c1cc3n(n1)CCC(C(F)F)O3)CO2 (stereo partly shown) [Example 551] | < 10000 |
| N#CC1(COCC2CCn3nc(C(=O)N[C@H]4COc5ccc(C(F)(F)F)cc5C4)cc3O2)CC1 (stereo partly shown) [Example 553] | < 10000 |
| N#Cc1ccc2c(c1)C[C@@H](NC(=O)c1cc3n(n1)CCC(COCC(F)(F)F)CO3)CO2 (stereo partly shown) [Example 555] | < 1000 |

More lines, now with the values ahead:

| IC50 [nM] | Compound |
| --- | --- |
| < 1000 | O=C(N[C@H]1COc2ccc(Cl)cc2C1)c1cc2n(n1)CCC(COC(F)(F)F)O2 (stereo partly shown) [Example 420] |
| < 1000 | N#Cc1ccc2c(c1)C[C@@H](NC(=O)c1cc3n(n1)CCC(CSCC(F)(F)F)O3)CO2 (stereo partly shown) [Example 423] |
| < 1000 | O=C(N[C@H]1COc2ccc(-c3cnn(CC(F)(F)F)c3)cc2C1)c1cc2n(n1)CCC(COCC1CC1)O2 (stereo partly shown) [Example 430] |
| < 1000 | O=C(N[C@H]1COc2ccc(C(F)(F)F)cc2C1)c1cc2n(n1)CCC(CCOC(F)F)O2 (stereo partly shown) [Example 433] |
| < 1000 | N#Cc1ccc2c(c1)C[C@@H](NC(=O)c1cc3n(n1)CCC(COCC1(C(F)(F)F)CC1)O3)CO2 (stereo partly shown) [Example 434] |
| < 1000 | O=C(N[C@H]1COc2ccc(-c3cnccn3)cc2C1)c1cc2n(n1)CCC(COCC1(C(F)(F)F)CC1)O2 (stereo partly shown) [Example 435] |
| < 1000 | C#Cc1ccc2c(c1)C[C@@H](NC(=O)c1cc3n(n1)CCC(COCC(F)(F)F)O3)CO2 (stereo partly shown) [Example 436] |
| < 1000 | O=C(N[C@H]1COc2ccc(COCC(F)(F)F)cc2C1)c1cc2n(n1)CCC(COC1CCC1)O2 (stereo partly shown) [Example 438] |
| < 1000 | O=C(N[C@H]1COc2ccc(CC(F)(F)F)cc2C1)c1cc2n(n1)CCC(COCC(F)(F)F)O2 (stereo partly shown) [Example 441] |
| < 1000 | O=C(N[C@H]1COc2ccc(Cl)cc2C1)c1cc2n(n1)CCC(COCC(F)(F)F)O2 (stereo partly shown) [Example 442] |
| < 1000 | CC1CCn2nc(C(=O)N[C@H]3COc4ccc(Cl)cc4C3)c(-c3ccccc3)c2O1 (stereo partly shown) [Example 444] |
| < 1000 | O=C(N[C@H]1COc2ccc(Cl)cc2C1)c1cc2n(n1)CC(C(F)(F)COCC1CC1)O2 (stereo partly shown) [Example 449] |
| < 1000 | N#Cc1ccc2c(c1)C[C@@H](NC(=O)c1cc3n(n1)CC(CCn1cc(C(F)(F)F)cn1)O3)CO2 (stereo partly shown) [Example 455] |
| < 1000 | CC1(C)CN(CC2Cn3nc(C(=O)N[C@H]4COc5ccc(C(F)(F)F)cc5C4)cc3O2)CCO1 (stereo partly shown) [Example 458] |
| < 1000 | O=C(N[C@H]1COc2ccc(C3CC3)cc2C1)c1cc2n(n1)CC(COCC1CC1)O2 (stereo partly shown) [Example 463] |
| < 1000 | N#Cc1ccc2c(c1)C[C@@H](NC(=O)c1cc3n(n1)CC(CCOCC1(C(F)(F)F)CC1)O3)CO2 (stereo partly shown) [Example 465] |
| < 1000 | O=C(N[C@H]1COc2ccc(-c3cnccn3)cc2C1)c1cc2n(n1)CC(CCOCC1(C(F)(F)F)CC1)O2 (stereo partly shown) [Example 467] |
| < 1000 | O=C(N[C@H]1COc2ccc(Cl)cc2C1)c1cc2n(n1)CC(COCC1CC1)O2 (stereo partly shown) [Example 469] |
| < 1000 | O=C(N[C@H]1COc2ccc(CC(F)F)cc2C1)c1cc2n(n1)CC(CCOC1CCC1)O2 (stereo partly shown) [Example 471] |

| IC50 [nM] | Compound |
| --- | --- |
| < 1000 | O=C(N[C@H]1COc2ccc(COCC(F)(F)F)cc2C1)c1cc2n(n1)CC(CCOC1CCC1)O2 (stereo partly shown) [Example 472] |
| < 1000 | Cn1cc(-c2ccc3c(c2)C[C@@H](NC(=O)c2cc4n(n2)CC(CCOC2CCC2)O4)CO3)cn1 (stereo partly shown) [Example 473] |
| < 1000 | O=C(N[C@H]1COc2ccc(-c3cnccn3)cc2C1)c1cc2n(n1)CC(CCOC1CCC1)O2 (stereo partly shown) [Example 474] |
| < 1000 | Cc1cnc(-c2ccc3c(c2)C[C@@H](NC(=O)c2cc4n(n2)CC(CCOC2CCC2)O4)CO3)cn1 (stereo partly shown) [Example 475] |
| < 1000 | O=C(N[C@H]1COc2ccc(C(F)(F)F)cc2C1)c1cc2n(n1)CC(CCN1CCC(F)(F)C1)O2 (stereo partly shown) [Example 476] |
| < 1000 | O=C(N[C@H]1COc2ccc(CC(F)F)cc2C1)c1cc2n(n1)CC(CCOCC(F)F)O2 (stereo partly shown) [Example 478] |
| < 1000 | O=C(N[C@H]1COc2ccc(CC(F)(F)F)cc2C1)c1cc2n(n1)CC(CCOCC(F)F)O2 (stereo partly shown) [Example 479] |
| < 1000 | O=C(N[C@H]1COc2ccc(COCC(F)(F)F)cc2C1)c1cc2n(n1)CCC(OCC(F)(F)F)CO2 (stereo partly shown) [Example 482] |
| < 1000 | COc1cccc(-c2c(C(=O)N[C@H]3COc4ccc(C(F)(F)F)cc4C3)nn3c2COCC3)n1 [Example 484] |
| < 1000 | O=C(N[C@H]1COc2ccc(C(F)(F)F)cc2C1)c1nn2c(c1-c1cccc(Cl)n1)COCC2 [Example 485] |
| < 1000 | O=C(N[C@H]1COc2ccc(C(F)(F)F)cc2C1)c1nn2c(c1-c1ccn[nH]1)OCCC2 [Example 486] |
| < 1000 | N#Cc1ccc2c(c1)C[C@@H](NC(=O)c1cc3n(n1)CCN(CC1CCC1)C3)CO2 [Example 498] |
| < 1000 | O=C(N[C@H]1COc2ccc(COCC(F)(F)F)cc2C1)c1cc2n(n1)CCN(CCC1CC1)C2 [Example 505] |
| < 1000 | O=C(NC1COc2ccccc2C1)c1cc2n(n1)CCN(c1ccc(F)cc1)C2 (stereo not shown) [Example 508] |
| < 1000 | O=C(N[C@H]1COc2ccc(C(F)(F)F)cc2C1)c1nn2c(c1-c1cccc(F)n1)COCC2 [Example 513] |
| < 1000 | O=C(N[C@H]1COc2ccc(Cl)cc2C1)c1nn2c(c1-c1ccccn1)COCC2 [Example 515] |
| < 1000 | O=C(N[C@H]1COc2ccc(C(F)(F)F)cc2C1)c1nn2c(c1-c1cccc(COCC(F)(F)F)n1)COCC2 [Example 520] |
| < 1000 | O=C(N[C@H]1COc2ccc(C(F)(F)F)cc2C1)c1nn2c(c1-c1cccc(CC(F)(F)F)n1)COCC2 [Example 523] |
